Survival data for 1 compound are collected here from patent US20260015592A1, “NEDDYLATION-ACTIVATING ENZYME INHIBITORS AS VIRAL SENSITIZERS AND USES THEREOF” (priority 2022, published 2026).

This experiment has as its system melanoma B16 tumors overexpressing OVA antigen (B16-OVA). Conditions: mouse, in vivo.

`NS(=O)(=O)OC[C@@H]1C[C@H](n2ccc3c(N[C@H]4CCc5ccccc54)ncnc32)C[C@@H]1O` [pevonedistat, ((1S,2S,4S)-4-(4-(((S)-2,3-dihydro-1H-inden-1-yl)amino)-7H-pyrrolo[2,3-d]pyrimidin-7-yl)-2-hydroxycyclopentyl) methyl sulfamate]: the survival result is listed as “significantly prolonged survival”.
